Laboratory results published in patent publication US9365721B2, “Polycyclo dyes and use thereof” (VISEN MEDICAL, INC., priority 2007, dated 2016).

Legend:
[1] = Absorption maximum (Abs. max) of the fluorochrome in solvent; assay type: physicochemical
[2] = Fluorescence emission maximum (Em. max) of the fluorochrome in solvent; assay type: physicochemical

| SMILES | Abs. max ([1]; MeOH) [nm] | Abs. max ([1]; water) [nm] | Em. max ([2]; MeOH) [nm] | Em. max ([2]; water) [nm] |
| --- | --- | --- | --- | --- |
| CN1C2CCC1/C(=C\C=C1\N(CCCS(=O)(=O)O)c3ccc(S(=O)(=O)O)cc3C1(C)C)C(Cl)=C2/C=C/C1=[N+](CCCS(=O)(=O)O)c2ccc(S(=O)(=O)O)cc2C1(C)C (centres unmarked) [Compound 39] | 780 | 768 | 802 | 788 |
| CCN1/C(=C/C=C2C(Cl)=C(/C=C/C3=[N+](CC)c4ccc5c(S(=O)(=O)O)cc(S(=O)(=O)O)cc5c4C3(C)C)C3CCC/2N3C)C(C)(C)c2c1ccc1c(S(=O)(=O)O)cc(S(=O)(=O)O)cc21 (centres unmarked) [Compound 38] | 814 | 805 | 835 | 827 |
| CN1C2CCC1/C(=C\C=C1\N(CCCCS(=O)(=O)O)c3ccccc3C1(C)C)C(Cl)=C2/C=C/C1=[N+](CCCCS(=O)(=O)O)c2ccccc2C1(C)C (centres unmarked) [Compound 11] | 770 | 760 | 790 | 775 |
| CN1C2CCC1/C(=C\C=C1\N(CCCCS(=O)(=O)O)c3ccccc3C1(C)C)C(SCCC(=O)O)=C2/C=C/C1=[N+](CCCCS(=O)(=O)O)c2ccccc2C1(C)C (centres unmarked) [Compound 12] | 780 | 768 | 810 | 787 |
| CN1C2CCC1/C(=C\C=C1\N(CCCS(=O)(=O)O)c3ccc(S(=O)(=O)O)cc3C1(C)C)C(SCCC(=O)O)=C2/C=C/C1=[N+](CCCS(=O)(=O)O)c2ccc(S(=O)(=O)O)cc2C1(C)C (centres unmarked) [Compound 13] | 788 | 777 | 810 | 797 |
